The results in this text go back to ChEMBL document CHEMBL1201862, “PubChem BioAssay data set” (2004).

Test systems include 786-0; BT-549; CAKI-1; EKVX; HCT-15; HOP-92; HT-29; IGROV-1; KM12; MDA-MB-435; NCI-H460; NCI-H522; OVCAR-4; RPMI-8226; RXF 393; SK-MEL-2; T47D; TK-10; MCF7; SF-539.
What all share (assay): NCI anticancer screen, dose series, 48 h

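In this assay, cells in 96-well plates receive the compound at five concentrations for 48 hours. Endpoints are linearly interpolated between the surrounding concentrations. The concentration for 50% growth inhibition is given as GI50.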 The source made the active and inactive calls. No stated cut-off is given here; in the data, active = GI50 up to about 1.1 µM and inactive = higher.

`NC(=O)NC(CC(=O)O)C(=O)O` (stereo not drawn): the GI50 in the assay with 786-0 is > 100 µM (inactive); in the assay with BT-549, > 100 µM (inactive); in the assay with CAKI-1 it was > 100 µM (inactive); in the assay with EKVX, > 100 µM (inactive); in the assay on HCT-15, more than 100 µM; in the assay with HOP-92 it was > 100 µM (inactive). For the same molecule, the GI50 with HT-29, in the assay with IGROV-1, in the assay on KM12, with MDA-MB-435, in the assay with NCI-H460 and with NCI-H522 was > 100 µM (inactive) each time. Also, the GI50 in the assay with OVCAR-4, with RPMI-8226, in the assay with RXF 393, in the assay on SK-MEL-2, with T47D and with TK-10 was > 100 µM (inactive) in each case.

`COc1cc(NC(C)CCCN)c2nccc(C)c2c1` (stereo not drawn): the GI50 is 19 µM (inactive) in the assay with 786-0; 15.8 µM (inactive) with BT-549; 21.2 µM (inactive) in the assay on CAKI-1; 55.3 µM (inactive) in the assay on EKVX; 21.3 µM with HCT-15; 24.9 µM (inactive) in the assay with HOP-92. The GI50 in the assay on HT-29 was 31.9 µM (inactive); in the assay with IGROV-1, 16.5 µM (inactive); in the assay on KM12 it was 17.5 µM (inactive); in the assay on MCF7, 16.2 µM (inactive); with MDA-MB-435 it was 16.7 µM (inactive); in the assay on NCI-H460, 22.3 µM (inactive). Further, the GI50 in the assay with NCI-H522 was 17.5 µM (inactive); with OVCAR-4, 21.8 µM (inactive); with RPMI-8226, 20.9 µM (inactive); with SF-539, 17.5 µM (inactive); in the assay on SK-MEL-2 it was 19.2 µM (inactive); in the assay on TK-10, 26.8 µM (inactive).

With `O=C(NCCC1CNc2ccccc21)OCc1ccccc1` (stereo not drawn), the GI50 in the assay on 786-0 was > 100 µM (inactive); with BT-549, > 100 µM (inactive); in the assay on CAKI-1, > 100 µM (inactive); in the assay with EKVX, > 100 µM (inactive); in the assay on HCT-15, more than 100 µM; in the assay with HOP-92, > 100 µM (inactive). The GI50 in the assay with HT-29, in the assay on IGROV-1, with KM12, in the assay on MCF7, with MDA-MB-435 and with NCI-H460 was > 100 µM (inactive) throughout. Further, the GI50 with NCI-H522, in the assay on OVCAR-4, in the assay with RPMI-8226, in the assay on RXF 393 and in the assay on SK-MEL-2 was > 100 µM (inactive) in each case.

Consider `COc1cc2[nH]c(=O)c3cc(C)cc4c(Cl)nc(c1OC)c2c43`, for which the GI50 is 20 µM (inactive) in the assay on 786-0; 35 µM (inactive) in the assay on BT-549; 56.2 µM (inactive) with CAKI-1; 18.1 µM (inactive) with EKVX; more than 100 µM in the assay with HCT-15; 35.9 µM (inactive) with HOP-92. Moreover, the GI50 is 89.9 µM (inactive) in the assay with HT-29; 67.8 µM (inactive) in the assay on IGROV-1; 96.6 µM (inactive) in the assay on KM12; 32.9 µM (inactive) in the assay on MCF7; 57.3 µM (inactive) in the assay with MDA-MB-435; 23.4 µM (inactive) with NCI-H460. Moreover, the GI50 in the assay on NCI-H522 is 36.3 µM (inactive); with OVCAR-4 it was > 100 µM (inactive); in the assay with RPMI-8226, 34.9 µM (inactive); in the assay with RXF 393, 21 µM (inactive); in the assay with SF-539, 29.9 µM (inactive); in the assay on SK-MEL-2, 32.9 µM (inactive). For the same molecule, in the assay on TK-10, the GI50 is 31.2 µM (inactive).

With `CC1=NN(c2nc(N)nc(/C(C#N)=C\c3csc([N+](=O)[O-])c3)n2)C(C)(C)C1`, the GI50 with 786-0 was 17.6 µM (inactive); in the assay with CAKI-1, 44.5 µM (inactive); with EKVX it was 30.2 µM (inactive); with HCT-15 it was 81.3 µM; with HOP-92 it was 54.7 µM (inactive); in the assay on HT-29, 37.3 µM (inactive). For the same molecule, the GI50 in the assay with IGROV-1 was 49.3 µM (inactive); with KM12, 57.9 µM (inactive); with MCF7, 35.6 µM (inactive); in the assay on MDA-MB-435 it was 39.7 µM (inactive); in the assay with NCI-H460 it was 32.7 µM (inactive); in the assay on NCI-H522, 21.3 µM (inactive). Moreover, the GI50 with OVCAR-4 was 21.9 µM (inactive); in the assay on RPMI-8226, 35.6 µM (inactive); in the assay on RXF 393, 20.6 µM (inactive); in the assay with SF-539, 27.2 µM (inactive); in the assay on SK-MEL-2 it was 28.9 µM (inactive); in the assay with T47D, 23.7 µM (inactive). Besides, the GI50 in the assay on TK-10 is 34.2 µM (inactive).

Consider `COc1ccc(N(C(=O)Nc2ccc(Cl)c(Cl)c2)C2c3cccn3C(=O)N2c2ccc(Cl)c(Cl)c2)cc1` (stereo not drawn), for which the GI50 with 786-0 is > 100 µM (inactive); with BT-549 it was > 100 µM (inactive); with CAKI-1, 26.9 µM (inactive); in the assay with EKVX, 42.3 µM (inactive); in the assay with HCT-15, 94 µM; in the assay on HOP-92, 51.3 µM (inactive). The GI50 in the assay on HT-29 was > 100 µM (inactive); in the assay with IGROV-1 it was > 100 µM (inactive); in the assay on KM12, 30.5 µM (inactive); in the assay with MCF7 it was 43.3 µM (inactive); with MDA-MB-435 it was 28.6 µM (inactive); with NCI-H460, 24.9 µM (inactive). For the same molecule, the GI50 in the assay with OVCAR-4 was 30.1 µM (inactive); in the assay with RPMI-8226 it was 0.0724 µM (active); with RXF 393, > 100 µM (inactive); in the assay with SF-539 it was > 100 µM (inactive); in the assay with SK-MEL-2, > 100 µM (inactive); with TK-10, > 100 µM (inactive).

For `O=c1[nH]c(=O)n(C2CC(O)C(COP(=O)(O)OC3CC(n4cc(F)c(=O)[nH]c4=O)OC3COP(=O)(O)OC3CC(n4cc(F)c(=O)[nH]c4=O)OC3COP(=O)(O)OC3CC(n4cc(F)c(=O)[nH]c4=O)OC3COP(=O)(O)OC3CC(n4cc(F)c(=O)[nH]c4=O)OC3COP(=O)(O)OC3CC(n4cc(F)c(=O)[nH]c4=O)OC3COP(=O)(O)OC3CC(n4cc(F)c(=O)[nH]c4=O)OC3COP(=O)(O)OC3CC(n4cc(F)c(=O)[nH]c4=O)OC3COP(=O)(O)OC3CC(n4cc(F)c(=O)[nH]c4=O)OC3COP(=O)(O)OC3CC(n4cc(F)c(=O)[nH]c4=O)OC3CO)O2)cc1F` (stereo not drawn), the GI50 in the assay with 786-0 is < 0.005 µM (active); in the assay with CAKI-1, < 0.005 µM (active); in the assay on HCT-15, 0.309 µM; in the assay on HOP-92, 0.0202 µM (active); in the assay on HT-29, 0.481 µM (active); in the assay on IGROV-1 it was 0.0435 µM (active). Also, the GI50 in the assay on KM12 is 3.59 µM (inactive); with MCF7, < 0.005 µM (active); with MDA-MB-435 it was 0.422 µM (active); with NCI-H460 it was < 0.005 µM (active); in the assay with NCI-H522 it was 0.015 µM (active); in the assay on OVCAR-4, 0.661 µM (active). Also, the GI50 was 0.232 µM (active) in the assay on RPMI-8226; 0.217 µM (active) in the assay with RXF 393; < 0.005 µM (active) in the assay on SF-539; 3.07 µM (inactive) in the assay with SK-MEL-2; 0.0473 µM (active) with T47D; 0.493 µM (active) in the assay on TK-10.

`COc1cccc(-c2cc(O)c3cc(NC(C)=O)ccc3n2)c1`: the GI50 is 28.9 µM (inactive) in the assay with 786-0; > 100 µM (inactive) with BT-549; 62.1 µM (inactive) in the assay on CAKI-1; 53 µM (inactive) in the assay on EKVX; 32 µM in the assay with HCT-15; 8.17 µM (inactive) in the assay with HOP-92. For the same molecule, the GI50 in the assay with HT-29 was 22 µM (inactive); in the assay on IGROV-1 it was 27.2 µM (inactive); with KM12, 23.5 µM (inactive); with MCF7, 5.65 µM (inactive); in the assay on MDA-MB-435, 3.8 µM (inactive); with NCI-H460, 33 µM (inactive). For the same molecule, the GI50 in the assay with NCI-H522 is 5.11 µM (inactive); in the assay with RPMI-8226, 42.9 µM (inactive); with SF-539, 14.2 µM (inactive); with TK-10, > 100 µM (inactive).

For the molecule `c1csc(-c2csc(-c3cccs3)c2)c1`, the GI50 in the assay with 786-0 was 52.1 µM (inactive); with CAKI-1, 84.3 µM (inactive); in the assay with EKVX, 39.8 µM (inactive); with HCT-15 it was 27.7 µM; with HOP-92, 17.7 µM (inactive); in the assay on HT-29, > 100 µM (inactive). Besides, the GI50 in the assay with IGROV-1 was 78.5 µM (inactive); in the assay on KM12 it was 28.9 µM (inactive); in the assay on MCF7 it was 8.85 µM (inactive); in the assay on MDA-MB-435, 25.8 µM (inactive); in the assay with NCI-H460, 88.3 µM (inactive); with NCI-H522, 29.4 µM (inactive). Also, the GI50 was 77.4 µM (inactive) with OVCAR-4; 24.3 µM (inactive) in the assay on RPMI-8226; 6.1 µM (inactive) in the assay with RXF 393; > 100 µM (inactive) with SF-539; 20.2 µM (inactive) in the assay on SK-MEL-2; 3.2 µM (inactive) with T47D. The GI50 in the assay with TK-10 is 67.1 µM (inactive).

As to `COC(=O)C1=C(O)C(C(=O)OC)[C@]2(O)[C@H](C(=O)OC)[C@H]1C[C@@H](c1ccc([N+](=O)[O-])cc1)[C@H]2C(=O)OC` (stereo partly drawn), the GI50 in the assay with 786-0 was 14.9 µM (inactive); in the assay on BT-549 it was 15.9 µM (inactive); with CAKI-1, 28.6 µM (inactive); in the assay on EKVX, 21.5 µM (inactive); in the assay with HCT-15, 12.7 µM; in the assay on HT-29, 22.6 µM (inactive). The GI50 with IGROV-1 was 12.8 µM (inactive); with KM12 it was 28 µM (inactive); in the assay on MDA-MB-435, 11 µM (inactive); in the assay with NCI-H460, 26.4 µM (inactive); in the assay on NCI-H522, 2.46 µM (inactive); in the assay on OVCAR-4 it was 34.8 µM (inactive). The GI50 in the assay with RXF 393 is 14.7 µM (inactive); in the assay with SF-539, 30.5 µM (inactive); in the assay on SK-MEL-2, 18.4 µM (inactive); in the assay with T47D, 38.2 µM (inactive); in the assay on TK-10, 74.1 µM (inactive).

In the case of `COc1ccc(SC(C)(SC)c2ccccn2)c(OC)n1` (stereo not drawn), the GI50 in the assay on 786-0 was 66.7 µM (inactive); with BT-549, 64.9 µM (inactive); with CAKI-1, > 100 µM (inactive); in the assay on EKVX it was > 100 µM (inactive); in the assay on HCT-15 it was 54.7 µM; with HOP-92, 70 µM (inactive). For the same molecule, the GI50 with HT-29 is 42.7 µM (inactive); with IGROV-1, > 100 µM (inactive); with KM12, 79.1 µM (inactive); with MCF7, 60.1 µM (inactive); in the assay with MDA-MB-435, > 100 µM (inactive); in the assay on NCI-H460 it was 73.1 µM (inactive). The GI50 is 36.3 µM (inactive) in the assay with NCI-H522; 83.4 µM (inactive) in the assay with OVCAR-4; 23.3 µM (inactive) in the assay on RPMI-8226; > 100 µM (inactive) in the assay with RXF 393; > 100 µM (inactive) in the assay with SF-539; 30.8 µM (inactive) in the assay with SK-MEL-2. The GI50 in the assay on TK-10 was > 100 µM (inactive).
